What was measured:
[1] = tested on: rabbit serum obtained by immunizing a rabbit with the SARS-CoV strain Frankfurt 1; format: binding; design: Binding of a rabbit serum to linear peptides / Binding of a rabbit serum to looped peptides / Rabbit serum linear peptides / Rabbit serum looped peptides / Binding of a rabbit serum to linear peptides of protein N of SARS-CoV Urbani (Rabbit serum linear peptides) / Binding of a rabbit serum to looped/cyclic peptides of protein N of SARS-CoV Urbani (Rabbit serum looped peptides): unit not given here
[2] = tested on: antibodies in sera from SARS patients (sera 1a, 1b, 2, 6, 37, 62, London, SARS-yellow, SARS-green); format: binding, human; design: Binding of serum 6 to linear peptides of protein X1 of SARS-CoV Urbani / Binding of serum 37 to linear peptides of protein X1 of SARS-CoV Urbani / Binding of serum 6 to looped/cyclic peptide (PEPSCAN-ELISA) / Binding of serum 37 to looped/cyclic peptide (PEPSCAN-ELISA) / Binding of serum 37 to looped/cyclic peptides of protein X1 of SARS-CoV Urbani / Binding of serum 6 to linear peptides of protein X2 / Binding of serum 37 to linear peptides of protein X2 / Binding of serum 37 to looped/cyclic peptides of protein X2 of SARS-CoV Urbani / Binding of serum 6 to linear peptides of protein M of SARS-CoV Urbani / Binding of serum 37 to linear peptides of protein M of SARS-CoV Urbani / Binding of serum 6 to looped/cyclic peptides of protein M of SARS-CoV Urbani / Binding of serum 37 to looped/cyclic peptides of protein M of SARS-CoV Urbani / Binding of serum 6 to linear peptides of protein X3 of SARS-CoV Urbani / Binding of serum 37 to linear peptides of protein X3 of SARS-CoV Urbani / Binding of serum 37 to looped/cyclic peptides of protein X3 of SARS-CoV Urbani / Binding of serum 6 to linear peptides of protein X4 of SARS-CoV Urbani / Binding of serum 37 to linear peptides of protein X4 of SARS-CoV Urbani / Binding of serum 37 to looped/cyclic peptides of protein X4 of SARS-CoV Urbani / Binding of serum 6 to linear peptides of protein X5 of SARS-CoV Urbani / Binding of serum 37 to linear peptides of protein X5 of SARS-CoV Urbani / Binding of serum 37 to looped/cyclic peptides of protein X5 of SARS-CoV Urbani / Binding of serum 6 to linear peptides of protein N of SARS-CoV Urbani / Binding of serum 37 to linear peptides of protein N of SARS-CoV Urbani / Binding of serum 6 to linear peptide (PEPSCAN-ELISA) / Binding of serum 1a to looped/cyclic peptides of protein N of SARS-CoV Urbani / Binding of serum 1b to looped/cyclic peptides of protein N of SARS-CoV Urbani / Binding of serum 2 to looped/cyclic peptides of protein N of SARS-CoV Urbani / Binding of serum 6 to looped/cyclic peptides of protein N of SARS-CoV Urbani / Binding of serum 37 to looped/cyclic peptides of protein N of SARS-CoV Urbani / Binding of serum 62 to looped/cyclic peptides of protein N of SARS-CoV Urbani / Binding of serum London to looped/cyclic peptides of protein N of SARS-CoV Urbani / Binding of serum SARS-green to looped/cyclic peptides of protein N of SARS-CoV Urbani: unit not given here
[3] = tested on: control sera (pooled serum of ten healthy LUMC hospital workers; commercial negative donor pooled serum from the Dutch bloodbank); format: binding, human; design: Binding of Control serum LUMC to linear peptides / Binding of Control serum Blood-bank to linear peptides / Binding of Control serum LUMC to looped peptides / Binding of Control Serum Blood-Bank to Looped peptides / Binding of Control serum LUMC to linear peptides of the protein M of SARS-CoV Urbani / Binding of Control serum Blood-bank to linear peptides of the protein M of SARS-CoV Urbani / Binding of Control serum LUMC to looped peptides of the protein M of SARS-CoV Urbani / Binding of Control Serum Blood-Bank to Looped peptides of the protein M of SARS-CoV Urbani: unit not given here

## IQFMMSRRRLLACLC
[1]
  Binding of a rabbit serum to linear peptides: 0.5
  Binding of a rabbit serum to looped peptides: 1.1
[2]
  Binding of serum 1a to linear peptides of protein X2: 0.7
  Binding of serum 1a to looped/cyclic peptides of protein X2 of SARS-CoV Urbani: 0.4
  Binding of serum 1b to linear peptides of protein X2: 0.5
  Binding of serum 1b to looped/cyclic peptides of protein X2 of SARS-CoV Urbani: 0.2
  Binding of serum 2 to linear peptides of protein X2: 0.4
  Binding of serum 2 to looped/cyclic peptides of protein X2 of SARS-CoV Urbani: 0.5
  Binding of serum 6 to linear peptides of protein X2: 0.6
  Binding of serum 6 to looped/cyclic peptides of protein X2 of SARS-CoV Urbani: 0.3
  Binding of serum 37 to linear peptides of protein X2: 0.6
  Binding of serum 37 to looped/cyclic peptides of protein X2 of SARS-CoV Urbani: 0.2
  Binding of serum 62 to linear peptides of protein X2: 0.7
  Binding of serum 62 to looped/cyclic peptides of protein X2 of SARS-CoV Urbani: 0.3
  Binding of serum London to linear peptides of protein X2: 0.5
  Binding of serum London to looped/cyclic peptides of protein X2 of SARS-CoV Urbani: 0.4
  Binding of serum SARS-green to linear peptides of protein X2: 0.6
  Binding of serum SARS-green to looped/cyclic peptides of protein X2 of SARS-CoV Urbani: 0.2
  Binding of serum SARS-yellow to linear peptides of protein X2: 0.8
  Binding of serum SARS-yellow to looped/cyclic peptides of protein X2 of SARS-CoV Urbani: 0.5
[3]
  Binding of Control Serum Blood-Bank to Looped peptides: 0.3
  Binding of Control serum Blood-bank to linear peptides: 0.8
  Binding of Control serum LUMC to linear peptides: 0.6
  Binding of Control serum LUMC to looped peptides: 0.4

## KLFIRQEEVQQELYS
[1]
  Rabbit serum linear peptides: 0.5
  Rabbit serum looped peptides: 0.5
[2]
  Binding of serum 1a to linear peptides of protein X4 of SARS-CoV Urbani: 0.7
  Binding of serum 1a to looped/cyclic peptides of protein X4 of SARS-CoV Urbani: 0.7
  Binding of serum 1b to linear peptides of protein X4 of SARS-CoV Urbani: 0.5
  Binding of serum 1b to looped/cyclic peptides of protein X4 of SARS-CoV Urbani: 0.6
  Binding of serum 2 to linear peptides of protein X4 of SARS-CoV Urbani: 0.4
  Binding of serum 2 to looped/cyclic peptides of protein X4 of SARS-CoV Urbani: 0.6
  Binding of serum 6 to linear peptides of protein X4 of SARS-CoV Urbani: 0.5
  Binding of serum 6 to looped/cyclic peptides of protein X4 of SARS-CoV Urbani: 0.4
  Binding of serum 37 to linear peptides of protein X4 of SARS-CoV Urbani: 0.7
  Binding of serum 37 to looped/cyclic peptides of protein X4 of SARS-CoV Urbani: 0.7
  Binding of serum 62 to linear peptides of protein X4 of SARS-CoV Urbani: 0.8
  Binding of serum 62 to looped/cyclic peptides of protein X4 of SARS-CoV Urbani: 0.6
  Binding of serum London to linear peptides of protein X4 of SARS-CoV Urbani: 0.7
  Binding of serum London to looped/cyclic peptides of protein X4 of SARS-CoV Urbani: 0.3
  Binding of serum SARS-green to linear peptides of protein X4 of SARS-CoV Urbani: 0.6
  Binding of serum SARS-green to looped/cyclic peptides of protein X4 of SARS-CoV Urbani: 0.8
  Binding of serum SARS-yellow to linear peptides of protein X4 of SARS-CoV Urbani: 0.4
  Binding of serum SARS-yellow to looped/cyclic peptides of protein X4 of SARS-CoV Urbani: 0.6
[3]
  Binding of Control Serum Blood-Bank to Looped peptides: 0.8
  Binding of Control serum Blood-bank to linear peptides: 0.5
  Binding of Control serum LUMC to linear peptides: 0.5
  Binding of Control serum LUMC to looped peptides: 0.8

## ACRIIMRCWLCWKCK
[1]
  Recognition of the peptide by the rabbit serum: recognized
[2]
  Recognition of the peptide by sera of SARS-CoV infected individuals, and form (linear, looped/cyclic) in which it is recognized: recognized in linear form
[3]
  Binding of Control Serum Blood-Bank to Looped peptides: 0.1
  Binding of Control serum Blood-bank to linear peptides: 1.0
  Binding of Control serum LUMC to linear peptides: 0.8
  Binding of Control serum LUMC to looped peptides: 0.3

## KLLQTLVLKMLHSSS
[1]
  Binding of a rabbit serum to linear peptides: 0.2
  Binding of a rabbit serum to looped peptides: 0.4
[2]
  Binding of serum 1a to linear peptides of protein X2: 0.6
  Binding of serum 1a to looped/cyclic peptides of protein X2 of SARS-CoV Urbani: 0.5
  Binding of serum 1b to linear peptides of protein X2: 0.6
  Binding of serum 1b to looped/cyclic peptides of protein X2 of SARS-CoV Urbani: 0.5
  Binding of serum 2 to linear peptides of protein X2: 0.4
  Binding of serum 2 to looped/cyclic peptides of protein X2 of SARS-CoV Urbani: 0.3
  Binding of serum 6 to linear peptides of protein X2: 0.3
  Binding of serum 6 to looped/cyclic peptides of protein X2 of SARS-CoV Urbani: 0.5
  Binding of serum 37 to linear peptides of protein X2: 0.5
  Binding of serum 37 to looped/cyclic peptides of protein X2 of SARS-CoV Urbani: 0.4
  Binding of serum 62 to linear peptides of protein X2: 0.6
  Binding of serum 62 to looped/cyclic peptides of protein X2 of SARS-CoV Urbani: 0.6
  Binding of serum London to linear peptides of protein X2: 0.4
  Binding of serum London to looped/cyclic peptides of protein X2 of SARS-CoV Urbani: 0.4
  Binding of serum SARS-green to linear peptides of protein X2: 0.5
  Binding of serum SARS-green to looped/cyclic peptides of protein X2 of SARS-CoV Urbani: 0.3
  Binding of serum SARS-yellow to linear peptides of protein X2: 0.4
  Binding of serum SARS-yellow to looped/cyclic peptides of protein X2 of SARS-CoV Urbani: 0.4
[3]
  Binding of Control Serum Blood-Bank to Looped peptides: 0.7
  Binding of Control serum Blood-bank to linear peptides: 0.7
  Binding of Control serum LUMC to linear peptides: 0.3
  Binding of Control serum LUMC to looped peptides: 0.6

## GYFTEVYYQLESTQI
[1]
  Binding of a rabbit serum to linear peptides: 0.1
  Binding of a rabbit serum to looped peptides: 0.5
[2]
  Binding of serum 1a to linear peptides of protein X1 of SARS-CoV Urbani: 0.7
  Binding of serum 1a to looped/cyclic peptides of protein X1 of SARS-CoV Urbani: 0.6
  Binding of serum 1b to linear peptides of protein X1 of SARS-CoV Urbani: 0.5
  Binding of serum 1b to looped/cyclic peptides of protein X1 of SARS-CoV Urbani: 0.5
  Binding of serum 2 to linear peptides of protein X1 of SARS-CoV Urbani: 0.5
  Binding of serum 2 to looped/cyclic peptides of protein X1 of SARS-CoV Urbani: 0.5
  Binding of serum 6 to linear peptides of protein X1 of SARS-CoV Urbani: 0.4
  Binding of serum 6 to looped/cyclic peptides of protein X1 of SARS-CoV Urbani: 0.4
  Binding of serum 37 to linear peptides of protein X1 of SARS-CoV Urbani: 0.6
  Binding of serum 37 to looped/cyclic peptides of protein X1 of SARS-CoV Urbani: 0.6
  Binding of serum 62 to linear peptides of protein X1 of SARS-CoV Urbani: 0.5
  Binding of serum 62 to looped/cyclic peptides of protein X1 of SARS-CoV Urbani: 0.6
  Binding of serum London to linear peptides of protein X1 of SARS-CoV Urbani: 0.3
  Binding of serum London to looped/cyclic peptides of protein X1 of SARS-CoV Urbani: 0.2
  Binding of serum SARS-green to linear peptides of protein X1 of SARS-CoV Urbani: 0.3
  Binding of serum SARS-green to looped/cyclic peptides of protein X1 of SARS-CoV Urbani: 0.4
  Binding of serum SARS-yellow to linear peptides of protein X1 of SARS-CoV Urbani: 0.4
  Binding of serum SARS-yellow to looped/cyclic peptides of protein X1 of SARS-CoV Urbani: 0.4
[3]
  Binding of Control Serum Blood-Bank to Looped peptides: 0.6
  Binding of Control serum Blood-bank to linear peptides: 0.4
  Binding of Control serum LUMC to linear peptides: 0.4
  Binding of Control serum LUMC to looped peptides: 0.7

## SPKLFIRQEEVQQEL
[1]
  Rabbit serum linear peptides: 0.5
  Rabbit serum looped peptides: 0.0
[2]
  Binding of serum 1a to linear peptides of protein X4 of SARS-CoV Urbani: 0.7
  Binding of serum 1a to looped/cyclic peptides of protein X4 of SARS-CoV Urbani: 0.8
  Binding of serum 1b to linear peptides of protein X4 of SARS-CoV Urbani: 0.5
  Binding of serum 1b to looped/cyclic peptides of protein X4 of SARS-CoV Urbani: 0.6
  Binding of serum 2 to linear peptides of protein X4 of SARS-CoV Urbani: 0.3
  Binding of serum 2 to looped/cyclic peptides of protein X4 of SARS-CoV Urbani: 0.7
  Binding of serum 6 to linear peptides of protein X4 of SARS-CoV Urbani: 0.4
  Binding of serum 6 to looped/cyclic peptides of protein X4 of SARS-CoV Urbani: 0.6
  Binding of serum 37 to linear peptides of protein X4 of SARS-CoV Urbani: 0.7
  Binding of serum 37 to looped/cyclic peptides of protein X4 of SARS-CoV Urbani: 0.8
  Binding of serum 62 to linear peptides of protein X4 of SARS-CoV Urbani: 0.7
  Binding of serum 62 to looped/cyclic peptides of protein X4 of SARS-CoV Urbani: 0.6
  Binding of serum London to linear peptides of protein X4 of SARS-CoV Urbani: 0.7
  Binding of serum London to looped/cyclic peptides of protein X4 of SARS-CoV Urbani: 0.4
  Binding of serum SARS-green to linear peptides of protein X4 of SARS-CoV Urbani: 0.8
  Binding of serum SARS-green to looped/cyclic peptides of protein X4 of SARS-CoV Urbani: 0.2
  Binding of serum SARS-yellow to linear peptides of protein X4 of SARS-CoV Urbani: 0.5
  Binding of serum SARS-yellow to looped/cyclic peptides of protein X4 of SARS-CoV Urbani: 0.5
[3]
  Binding of Control Serum Blood-Bank to Looped peptides: 0.6
  Binding of Control serum Blood-bank to linear peptides: 0.5
  Binding of Control serum LUMC to linear peptides: 0.5
  Binding of Control serum LUMC to looped peptides: 0.8

From patent publication US20070128217A1 (priority 2003, published 2007)
